Results from PubChem BioAssay (NCI).
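Exposure lasted 48 hours, with cells grown in 96-well plates and compounds tested at five concentrations. GI50: concentration for 50% inhibition of growth. At the TGI there is no net growth.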

Assays:
Assay in all cases: growth of human tumour cells (NCI), 48 h
U251 CNS = system: U251 CNS
A498 renal = system: A498 renal
HS 578T breast = system: HS 578T breast
MOLT-4 leukemia = system: MOLT-4 leukemia
HCC-2998 colon = system: HCC-2998 colon
MCF7 breast = system: MCF7 breast
KM12 colon = system: KM12 colon
T-47D breast = system: T-47D breast
UACC-62 melanoma = system: UACC-62 melanoma
MDA-MB-468 breast = system: MDA-MB-468 breast
CCRF-CEM leukemia = system: CCRF-CEM leukemia
OVCAR-5 ovarian = system: OVCAR-5 ovarian
SF-268 CNS = system: SF-268 CNS
UACC-257 melanoma = system: UACC-257 melanoma
NCI-H522 lung = system: NCI-H522 lung
NCI-H23 lung = system: NCI-H23 lung
SK-MEL-2 melanoma = system: SK-MEL-2 melanoma
RXF 393 renal = system: RXF 393 renal
HCT-15 colon = system: HCT-15 colon
BT-549 breast = system: BT-549 breast
K-562 leukemia = system: K-562 leukemia
HL-60(TB) leukemia = system: HL-60(TB) leukemia
SNB-19 CNS = system: SNB-19 CNS
SN12C renal = system: SN12C renal
HOP-62 NSCLC = system: HOP-62 NSCLC
MDA-MB-231 breast = system: MDA-MB-231 breast
786-0 renal = system: 786-0 renal
COLO 205 colon = system: COLO 205 colon
HCT-116 colon = system: HCT-116 colon
SK-OV-3 ovarian = system: SK-OV-3 ovarian
SK-MEL-5 melanoma = system: SK-MEL-5 melanoma
M14 melanoma = system: M14 melanoma
SK-MEL-28 melanoma = system: SK-MEL-28 melanoma
TK-10 renal = system: TK-10 renal
RPMI-8226 leukemia = system: RPMI-8226 leukemia
PC-3 prostate = system: PC-3 prostate
SW-620 colon = system: SW-620 colon
EKVX NSCLC = system: EKVX NSCLC
OVCAR-4 ovarian = system: OVCAR-4 ovarian
SF-295 CNS = system: SF-295 CNS
OVCAR-3 ovarian = system: OVCAR-3 ovarian
NCI/ADR-RES ovarian = system: NCI/ADR-RES ovarian
ACHN renal = system: ACHN renal
UO-31 renal = system: UO-31 renal
NCI-H226 lung = system: NCI-H226 lung
HT29 colon = system: HT29 colon
SF-539 CNS = system: SF-539 CNS
SNB-75 CNS = system: SNB-75 CNS
MALME-3M melanoma = system: MALME-3M melanoma
DU-145 prostate = system: DU-145 prostate
SR leukemia = system: SR leukemia
A549 NSCLC = system: A549 NSCLC
OVCAR-8 ovarian = system: OVCAR-8 ovarian
LOX IMVI melanoma = system: LOX IMVI melanoma
MDA-MB-435 = system: MDA-MB-435
HOP-92 NSCLC = system: HOP-92 NSCLC
IGROV1 ovarian = system: IGROV1 ovarian
CAKI-1 renal = system: CAKI-1 renal
NCI-H460 lung = system: NCI-H460 lung

Cc1ccc(C2CC(c3ccc(NC(=O)Nc4ccccc4)cc3)=NN2c2ccc(S(N)(=O)=O)cc2)cc1 (stereo not drawn)
GI50 (U251 CNS): 6.86 µM
TGI (U251 CNS): 20.3 µM
GI50 (A498 renal): 9.06 µM
TGI (A498 renal): 21.3 µM
GI50 (HS 578T breast): 14.8 µM
TGI (HS 578T breast): 39.1 µM
GI50 (MOLT-4 leukemia): 2980 nM
TGI (MOLT-4 leukemia): 14.1 µM
GI50 (HCC-2998 colon): 2650 nM
TGI (HCC-2998 colon): 8.77 µM
GI50 (MCF7 breast): 3.56 µM
TGI (MCF7 breast): 15.2 µM
GI50 (KM12 colon): 5.57 µM
TGI (KM12 colon): 22.1 µM
GI50 (T-47D breast): 3.37 µM
TGI (T-47D breast): 14.6 µM
GI50 (UACC-62 melanoma): 10.4 µM
TGI (UACC-62 melanoma): 22.6 µM
GI50 (MDA-MB-468 breast): 10.2 µM
TGI (MDA-MB-468 breast): 24 µM
GI50 (CCRF-CEM leukemia): 3.98 µM
TGI (CCRF-CEM leukemia): 22 µM
GI50 (OVCAR-5 ovarian): 12.4 µM
TGI (OVCAR-5 ovarian): 25.2 µM
GI50 (SF-268 CNS): 10.2 µM
TGI (SF-268 CNS): 24 µM
GI50 (UACC-257 melanoma): 8.48 µM
TGI (UACC-257 melanoma): 22 µM
GI50 (NCI-H522 lung): 2840 nM
TGI (NCI-H522 lung): 15 µM
GI50 (NCI-H23 lung): 3.57 µM
TGI (NCI-H23 lung): 14.3 µM
GI50 (SK-MEL-2 melanoma): 7.4 µM
TGI (SK-MEL-2 melanoma): 21.5 µM
GI50 (RXF 393 renal): 13.1 µM
TGI (RXF 393 renal): 27.6 µM
GI50 (HCT-15 colon): 4.35 µM
TGI (HCT-15 colon): 16.9 µM
GI50 (BT-549 breast): 7.84 µM
TGI (BT-549 breast): 20.9 µM
GI50 (K-562 leukemia): 3.94 µM
TGI (K-562 leukemia): > 100 µM
GI50 (HL-60(TB) leukemia): 2130 nM
TGI (HL-60(TB) leukemia): 10.6 µM
GI50 (SNB-19 CNS): 12.7 µM
TGI (SNB-19 CNS): 25.4 µM
GI50 (SN12C renal): 3.92 µM
TGI (SN12C renal): 14.5 µM
GI50 (HOP-62 NSCLC): 13.3 µM
TGI (HOP-62 NSCLC): 28.7 µM
GI50 (MDA-MB-231 breast): 12.3 µM
TGI (MDA-MB-231 breast): 25.3 µM
GI50 (786-0 renal): 3.86 µM
TGI (786-0 renal): 15.7 µM
GI50 (COLO 205 colon): 4.22 µM
TGI (COLO 205 colon): 18.6 µM
GI50 (HCT-116 colon): 2990 nM
TGI (HCT-116 colon): 13.5 µM
GI50 (SK-OV-3 ovarian): 12.9 µM
TGI (SK-OV-3 ovarian): 27.1 µM
GI50 (SK-MEL-5 melanoma): 15.5 µM
TGI (SK-MEL-5 melanoma): 29.5 µM
GI50 (M14 melanoma): 9.27 µM
TGI (M14 melanoma): 27.2 µM
GI50 (SK-MEL-28 melanoma): 10.5 µM
TGI (SK-MEL-28 melanoma): 22.5 µM
GI50 (TK-10 renal): 9.93 µM
TGI (TK-10 renal): 22.2 µM
GI50 (RPMI-8226 leukemia): 3.8 µM
TGI (RPMI-8226 leukemia): 35.9 µM
GI50 (PC-3 prostate): 2600 nM
TGI (PC-3 prostate): 12.8 µM
GI50 (SW-620 colon): 5.53 µM
TGI (SW-620 colon): 22.3 µM
GI50 (EKVX NSCLC): 4.04 µM
TGI (EKVX NSCLC): 16.4 µM
GI50 (OVCAR-4 ovarian): 4.5 µM
TGI (OVCAR-4 ovarian): 17.2 µM
GI50 (SF-295 CNS): 5.34 µM
TGI (SF-295 CNS): 18.8 µM
GI50 (OVCAR-3 ovarian): 3.97 µM
TGI (OVCAR-3 ovarian): 18.7 µM
GI50 (NCI/ADR-RES ovarian): 2830 nM
TGI (NCI/ADR-RES ovarian): 11 µM
GI50 (ACHN renal): 4.16 µM
TGI (ACHN renal): 14.9 µM
GI50 (UO-31 renal): 3.45 µM
TGI (UO-31 renal): 14.6 µM
GI50 (NCI-H226 lung): 10.9 µM
TGI (NCI-H226 lung): 24.9 µM
GI50 (HT29 colon): 2300 nM
TGI (HT29 colon): 7.45 µM
GI50 (SF-539 CNS): 12.7 µM
TGI (SF-539 CNS): 25.4 µM
GI50 (SNB-75 CNS): 10.7 µM
TGI (SNB-75 CNS): 24 µM
GI50 (MALME-3M melanoma): 7.88 µM
TGI (MALME-3M melanoma): 20.8 µM
GI50 (DU-145 prostate): 10.2 µM
TGI (DU-145 prostate): 23 µM
GI50 (SR leukemia): 4.28 µM
TGI (SR leukemia): 26.7 µM
GI50 (A549 NSCLC): 3.36 µM
TGI (A549 NSCLC): 14.7 µM
GI50 (OVCAR-8 ovarian): 5.58 µM
TGI (OVCAR-8 ovarian): 21.4 µM
GI50 (LOX IMVI melanoma): 1760 nM
TGI (LOX IMVI melanoma): 3.23 µM
GI50 (MDA-MB-435): 6.83 µM
TGI (MDA-MB-435): 21.3 µM
GI50 (HOP-92 NSCLC): 3.21 µM
TGI (HOP-92 NSCLC): 14.8 µM
GI50 (IGROV1 ovarian): 6.9 µM
TGI (IGROV1 ovarian): 20.3 µM
GI50 (CAKI-1 renal): 10.4 µM
TGI (CAKI-1 renal): 22.5 µM
GI50 (NCI-H460 lung): 2990 nM
TGI (NCI-H460 lung): 12.5 µM
